Read-outs that look alike come from different tables or passages of the source.
Assays:
[1] = system: Bone marrow-derived human mesenchymal stem cells (BM-hMSC); assay: Human mesenchymal stem cell-2: 3D, EZSPHERE and 2D culture, ATP assay (Experimental Example 10); format: cell-based; conditions: for viability at 1 µM / viability at 5 µM / viability at 10 µM / viability at 20 µM: Homo sapiens, Mesenchymal stem cells, 96 h, read-out: relative value of RLU (number of viable cells), BM-hMSC, 4 days, non-addition = 100%
Method: Bone marrow-derived human mesenchymal stem cells (BM-hMSC, manufactured by PromoCell) were precultured by a single layer culture method (2D) using a mesenchymal stem cell proliferation medium (manufactured by PromoCell). In three-dimensional culture method (3D), hMSC was suspended in a medium composition added with deacylated gellan gum, and seeded in a […] flat bottom Ultr-low Attachment surface plate (manufactured by Corning Incorporated, #3474) at 6000 cells/90 μL/well. In the three-dimensional culture method using EZSPHERE (EZSPHERE), hMSC was suspended in a deacylated gellan gum-free medium composition, and seeded in a 96-well EZSPHERE plate (manufactured by AGC TECHNO GLASS CO., LTD., #4860-900) at 2000 cells/90 μL/well. In 2D, hMSC was suspended in a deacylated gellan gum-free medium composition, and seeded in a 96-well flat bottom plate (manufactured by Corning Incorporated, #3585) at 2000 cells/90 μL/well. […] As a control, DMSO was added at a final concentration of 0.1%.

[2] = system: human ovarian cancer cell line SKOV3; assay: Various human cancer cells-2, 3D culture, ATP assay (Experimental Example 6); format: cell-based; conditions: 4 days
Method: (§1) Various human-derived cancer cells were precultured (single layer culture) in respective media shown below. […] The above-mentioned cells in the logarithmic growth phase were washed with PBS, a 0.25 w/v % trypsin-1 mmol/L EDTA (ethylenediaminetetraacetic acid) solution (manufactured by Wako Pure Chemical Industries, Ltd.) was added, and adherent cells were detached by incubating at 37° C. for 1-5 min. Each medium was added and the mixture was centrifuged. After resuspension in the same medium, each cell was recovered.
(§2) The aforementioned various cells were suspended in respective deacylated gellan gum-containing or not containing media (deacylated gellan gum concentration was 0.015 w/v %), and seeded in a 96 well low attachment U-bottom plate (manufactured by Corning, #4520, deacylated gellan gum-free medium), or a low attachment flat bottom plate (manufactured by Corning, #3474, deacylated gellan gum-containing medium) at a cell concentration of 700-12000 cells/90 μL/well (all 3D culture). […] The amount of each compound solution to be added was 10 μL/well. As a control, a DMSO solution dissolved in a medium was added (DMSO final concentration 0.1%). […] When compared with the compound no-addition (control), one showing a value of not more than 119% as -, one showing a value of not less than 120% as ◯, and one showing a value of not less than 150% as ⊚ are shown in the eleventh table and the twelfth table. Unperformed test is left blank.

[3] = system: human alveolar basal epithelial adenocarcinoma-derived cell line A549; assay: as above; format: cell-based; conditions: 4 days
Method: as §1, §2

[4] = system: human ovarian cancer cell line SKOV3; assay: Action on SKOV3 cell-2: 3D (deacylated gellan gum) and 2D culture, EGF medium, ATP assay (Experimental Example 3); conditions: for viability at 1 µM / viability at 5 µM / viability at 10 µM / viability at 20 µM: Homo sapiens, SK-OV-3, 96 h, 4 days, compound non-addition = 100%
Method: According to the method of patent document 1 (WO 2014/017513), a composition of McCoy's 5a medium (manufactured by Sigma-Aldrich) containing 0.015% (w/v) deacylated gellan gum (KELCOGEL CG-LA, manufactured by Sansho Co., Ltd.) and 15% (v/v) FBS, 30 ng/mL human EGF (manufactured by PEPROTECH) was prepared using FCeM-series Preparation Kit (manufactured by Wako Pure Chemical Industries, Ltd.). In a single layer culture, a non-addition medium composition not containing deacylated gellan gum was prepared. Then, human ovarian cancer cell line SKOV3 (manufactured by DS PHARMA BIO MEDICAL) was suspended in the above-mentioned medium composition added with deacylated gellan gum, and dispensed into the wells of a 384 well flat bottom Ultr-low Attachment surface microplate (manufactured by Corning Incorporated, #3827) at 1000 cells/36 μL/well (three-dimensional culture (3D)). In a single layer culture (2D), human ovarian cancer cell line SKOV3 was suspended in the above-mentioned medium composition not containing deacylated gellan gum, and dispensed into the wells of a 384 well flat bottom microplate (manufactured by Corning Incorporated, #3712) at 400 cells/36 μL per well. After dispensing, the compound to be used in the present invention dissolved in dimethyl sulfoxide (DMSO) was added by 4 μL each at a final concentration of 0, 1, 5, 10, 20 μM, and continuously cultured for 4 days. Each plate was cultured in a standing state in a CO2 incubator (37° C., 5% CO2) for 4 days. An ATP reagent (40 μL) (CellTiter-Glo (registered trade mark) Luminescent Cell Viability Assay, manufactured by Promega) was added to the culture medium on day 4, and the mixture was stirred by a plateshaker (manufactured by AS ONE Corporation, Micro plate mixer NS-P) at room temperature for 15 min. The luminescence intensity (RLU value) was measured by EnSpire (manufactured by Perkin Elmer) and the luminescence value of the medium alone was subtracted to measure the number of viable cells.

plural animal cell lines = assay: Animal cell lines, summary over the cell lines (Experimental Example 15); format: cell-based; conditions: animal cell lines under three-dimensional conditions
[5] = system: a plurality of cancer cell lines; assay: Various human cancer cells-2, summary over the cell lines (Experimental Example 6); format: cell-based; conditions: cancer cell lines under three-dimensional conditions
Method: as §1, §2

[6] = low attachment U-bottom plate, 5 μM
[7] = low attachment U-bottom plate, 10 μM
[8] = low attachment flat bottom plate (gellan gum medium), 5 μM
[9] = low attachment flat bottom plate (gellan gum medium), 10 μM
[10] = read-out: relative value of RLU (number of viable cells), 2D single layer culture
[11] = read-out: relative value of RLU (number of viable cells), 3D culture (deacylated gellan gum)

`CC/C(=N\NC(=O)NCc1cccc(O)c1)c1ccc(O)c(C)c1O` [k-1:J-1] was tested, and the viability at 1 µM ([1]; 2D) was 107%, the viability at 5 µM ([1]; 2D) was 121% and the viability at 10 µM ([1]; 2D) was 146%. The viability at 20 µM ([1]; 2D) was 157%, the viability at 1 µM ([1]; 3D (deacylated gellan gum)) was 132% and the viability at 5 µM ([1]; 3D (deacylated gellan gum)) was 330%. The viability at 10 µM ([1]; 3D (deacylated gellan gum)) was 579%, the viability at 20 µM ([1]; 3D (deacylated gellan gum)) was 773% and the viability at 1 µM ([1]; EZSPHERE plate) was 149%. For the same molecule, the viability at 5 µM ([1]; EZSPHERE plate) was 241%, the viability at 10 µM ([1]; EZSPHERE plate) was 321% and the viability at 20 µM ([1]; EZSPHERE plate) was 231%. The “proliferation activity (in words)” value ([1]; three-dimensional cell culture conditions) was “promoted proliferation activity of BM-hMSC”, the “proliferation activity (in words)” value ([1]; two-dimensional cell culture conditions) was “promoted proliferation activity of hMSC” and the “number of viable cells (RLU), relative value to control (100%)” value (from here on “number … relative value to control (100%)”) [2, 6] was “⊙”. The “number … relative value to control (100%)” value [2, 7] was “⊙”, the “number … relative value to control (100%)” value [2, 8] was “⊙” and the “number … relative value to control (100%)” value [2, 9] was “⊙”. For the same molecule, the “number … relative value to control (100%)” value [3, 6] was “⊙”, the “number … relative value to control (100%)” value [3, 7] was “⊙” and the “number … relative value to control (100%)” value [3, 8] was “⊙”. The “number … relative value to control (100%)” value [3, 9] was “⊙”, the viability at 1 µM [4, 10] was 93% and the viability at 5 µM [4, 10] was 96%. The viability at 10 µM [4, 10] was 97%, the viability at 20 µM [4, 10] was 102% and the viability at 1 µM [4, 11] was 116%. It also gave a viability at 5 µM [4, 11] of 170%, a viability at 10 µM [4, 11] of 186% and a viability at 20 µM [4, 11] of 173%. The “cell proliferation promoting effect (in words)” value ([4]; single layer culture (2D) of SKOV3 cells) was “a favorable cell proliferation promoting effect was not observed”, the “cell proliferation promoting effect (in words)” value ([4]; three-dimensional culture (3D) of SKOV3 cells) was “exhibited cell proliferation promoting effect at a wide concentration range” and the “proliferation activity (in words)” value (plural animal cell lines) was “promoted proliferation activity in plural animal cell lines”. For the same molecule, the “proliferation activity (in words)” value [5] was “promoted proliferation activity in a plurality of cancer cell lines”.

Reference: US20200165194A1, “ADDITIVE COMPOSITION FOR CULTURE MEDIUM, ADDITIVE COMPOUND FOR CULTURE MEDIUM, AND METHOD FOR CULTURE OF CELLS OR TISSUE USING SAME” (NISSAN CHEMICAL CORPORATION, priority 2017, published 2020)
